Reference: patent publication US8378117B2 (priority 2005, dated 2013)
Like-named read-outs stand apart in the source and are kept apart here.

Assays:
CB2 receptor = biological target: T1, CB2 receptor (Homo sapiens, UniProt P34972); assay: Binding assay for CB2 agonists or inverse agonists (SK-N-MC membranes, [3H]-CP-55,940); details: for inhibition at 0.2 µM: read-out: CB2 receptor binding percent inhibition, test concentration 0.2 μM (footnote 2)
T1 construct: expressed in transfected cells
Protocol: (§1) The human CB1 and CB2 receptors were stably expressed in SK-N-MC cells transfected with pcDNA3 CB-1 (human) or pcDNA3 CB-2 (human). The cells were grown in T-180 cell culture flasks under standard cell culture conditions at 37° C. in a 5% CO2 atmosphere. The cells were harvested by trysinization and homogenized in a homogenization buffer (10 mM Tris, 0.2 mM MgCl2, 5 mM KCl, with protease inhibitors aprotinin, leupeptin, pepstatin A and bacitracin) and centrifuged (2000 g). The supernatant was then centrifuged in 2M sucrose (31,300 g) to produce a semi-purified membrane pellet. The pellet was resuspended in homogenization and stored at −80° C.
On the day of the assay, the pellet was thawed on ice and diluted in assay buffer (50 mM Tris-HCl, 5 mM MgCl2, 2.5 mM EDTA, 0.5 mg/mL fatty acid free bovine serum aldumin, pH 7.5). […] The plate was covered and incubated for 90 minutes at 30° C. The contents were then aspirated onto a Packard Unifilter GF/C filter bottom plate prewet with 0.5% polyethyleneimine. The wells of the polypropylene plate were rinsed and aspirated seven times with a 0.9% saline-0.5% Tween 20 solution. The Unifilter plate was dried, a scintillation cocktail was added to each well and the counts representing binding were quantitated in a TopCount scintillation counter.
(§2) For compounds tested, an IC50 binding value was obtained from percent inhibition studies in which various test concentrations were used. The binding value was calculated by linear regression.

CB1 receptor = biological target: T2, CB1 receptor (Homo sapiens, UniProt P21554); assay: Binding assay for CB1 agonists or inverse agonists (SK-N-MC membranes, [3H]-CP-55,940); details: for inhibition at 1 µM: read-out: CB1 receptor binding percent inhibition, test concentration 1 μM (footnote 1); for inhibition at 0.2 µM: read-out: CB1 receptor binding percent inhibition, test concentration 0.2 μM (footnote 2)
T2 construct: expressed in transfected cells
T2 sequence (P21554 whole entry): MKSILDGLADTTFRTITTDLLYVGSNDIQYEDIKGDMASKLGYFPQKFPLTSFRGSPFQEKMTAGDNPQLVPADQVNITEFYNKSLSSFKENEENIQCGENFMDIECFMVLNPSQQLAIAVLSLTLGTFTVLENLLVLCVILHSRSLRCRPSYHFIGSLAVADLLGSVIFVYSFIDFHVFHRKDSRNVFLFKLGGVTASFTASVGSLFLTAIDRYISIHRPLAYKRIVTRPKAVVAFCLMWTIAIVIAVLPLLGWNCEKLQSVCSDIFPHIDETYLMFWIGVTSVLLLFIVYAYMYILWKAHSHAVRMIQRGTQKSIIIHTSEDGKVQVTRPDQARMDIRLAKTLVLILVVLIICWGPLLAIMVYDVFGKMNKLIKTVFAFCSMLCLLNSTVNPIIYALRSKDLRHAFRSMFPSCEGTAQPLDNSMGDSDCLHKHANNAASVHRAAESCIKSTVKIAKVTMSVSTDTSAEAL
Protocol: as §1
On the day of the assay, the pellet was thawed on ice and diluted in assay buffer (50 mM Tris-HCl, 5 mM MgCl2, 2.5 mM EDTA, 0.5 mg/mL fatty acid free bovine serum aldumin, pH 7.5). The diluted membrane pellet was added with buffer, either a test compound or vehicle standard and the radioligand […] ([…]) to the wells of a 96-well polypropylene plate. Non-specific binding was measured in wells containing WIN 55,212 (10 uM). The plate was covered and incubated for 90 minutes at 30° C. The contents were then aspirated onto a Packard Unifilter GF/C filter bottom plate prewet with 0.5% polyethyleneimine. The wells of the polypropylene plate were rinsed and aspirated seven times with a 0.9% saline-0.5% Tween 20 solution. The Unifilter plate was dried, a scintillation cocktail was added to each well and the counts representing binding were quantitated in a TopCount scintillation counter.
as §2

[1] = Cannabinoid CB1 Receptor Binding IC50, calculated by linear regression from percent inhibition at various test concentrations

T1 sequence (P34972 whole entry): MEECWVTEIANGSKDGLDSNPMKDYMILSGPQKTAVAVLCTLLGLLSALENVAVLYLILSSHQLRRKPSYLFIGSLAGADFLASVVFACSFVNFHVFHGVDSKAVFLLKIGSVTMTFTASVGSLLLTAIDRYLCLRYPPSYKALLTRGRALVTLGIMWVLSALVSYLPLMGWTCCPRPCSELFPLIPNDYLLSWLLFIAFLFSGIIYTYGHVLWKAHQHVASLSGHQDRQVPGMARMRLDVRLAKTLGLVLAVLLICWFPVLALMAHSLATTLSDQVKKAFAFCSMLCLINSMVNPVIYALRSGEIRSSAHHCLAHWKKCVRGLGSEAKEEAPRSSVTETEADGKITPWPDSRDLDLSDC

| SMILES | CB2 receptor binding percent inhibition (CB2 receptor; test concentration not stated) [%] | inhibition at 1 µM (CB1 receptor) [%] | inhibition at 0.2 µM (CB2 receptor) [%] | inhibition at 0.2 µM (CB1 receptor) [%] | further results |
| --- | --- | --- | --- | --- | --- |
| O=C(NC1C2CC3CC(C2)CC1C3)c1nn(-c2ccc(Cl)cc2Cl)c2c1CCCCC2Cc1ccc(Cl)cc1 (stereo not shown) [Cpd 18, 8-(4-chloro-benzyl)-1-(2,4-dichloro-phenyl)-1,4,5,6,7,8-hexahydro-cycloheptapyrazole-3-carboxylic acid adamantan-2-ylamide] | 23 | 3 |  |  |  |
| O=C(NC1CC1)c1nn(C2CCCCC2)c2c1CCCCC2Cc1cccc(Cl)c1 (stereo not shown) [Cpd 32, 8-(3-chloro-benzyl)-1-cyclohexyl-1,4,5,6,7,8-hexahydro-cycloheptapyrazole-3-carboxylic acid cyclopropylamide] | 0 | 0 |  |  |  |
| COC(=O)[C@@H](Cc1ccc(F)cc1)NC(=O)c1nn(C)c2c1CCCC/C2=C\c1cccc(F)c1 [Cpd 248, (8E)-(2R)-2-{[8-(3-fluoro-benzylidene)-1-methyl-1,4,5,6,7,8-hexahydro-cycloheptapyrazole-3-carbonyl]-amino}-3-(4-fluoro-phenyl)-propionic acid methyl ester] |  |  | 96 | 89 | IC50 (CB2 receptor; Cannabinoid CB2 Receptor Binding IC50, calculated by linear regression from percent inhibition at various test concentrations): 3 nM; IC50 (CB1 receptor; [1]): 7 nM |
| CCOC(=O)[C@@H]1C2CCC(C2)[C@@H]1NC(=O)c1nn(-c2ccc(Cl)cc2Cl)c2c1CCCCC2Cc1cccc(Cl)c1 (stereo partly drawn) [Cpd 109, (2R,3S)-3-{[8-(3-chloro-benzyl)-1-(2,4-dichloro-phenyl)-1,4,5,6,7,8-hexahydro-cycloheptapyrazole-3-carbonyl]-amino}-bicyclo[2.2.1]heptane-2-carboxylic acid ethyl ester] | 48 | 72 |  |  | IC50 (CB1 receptor; calculated by linear regression from percent inhibition at various test concentrations, read-out: Cannabinoid CB1 Receptor Binding IC50): 300 nM; inhibition at 0.5 µM (CB1 receptor; read-out: CB1 receptor binding percent inhibition, test concentration 0.5 μM (footnote 10)): 60% |
| C[C@H](NC(=O)c1nn(-c2ccccc2Cl)c2c1CCCC/C2=C\c1ccc(Cl)cc1)c1ccccc1 [Cpd 191, (8E)-8-(4-chloro-benzylidene)-1-(2-chloro-phenyl)-1,4,5,6,7,8-hexahydro-cycloheptapyrazole-3-carboxylic acid [(1S)-1-phenyl-ethyl]-amide] |  |  | 7 | 47 |  |
| O=C(NC1CC1)c1nn(C2CCCCC2)c2c1CCCCC2Cc1ccccc1Cl (stereo not shown) [Cpd 31, 8-(2-chloro-benzyl)-1-cyclohexyl-1,4,5,6,7,8-hexahydro-cycloheptapyrazole-3-carboxylic acid cyclopropylamide] | 35 | 0 |  |  |  |
| CC(C)(C)OC(=O)N1CCC(NC(=O)c2nn(C3CCCCC3)c3c2CCCCC3Cc2cccc(F)c2)CC1 (stereo not shown) [Cpd 46, 4-{[1-cyclohexyl-8-(3-fluoro-benzyl)-1,4,5,6,7,8-hexahydro-cycloheptapyrazole-3-carbonyl]-amino}-piperidine-1-carboxylic acid tert-butyl ester] | 0 | 45 |  |  |  |
| O=C(NC1CCCC1)c1nn(C2CCCCC2)c2c1CCCCC2Cc1ccc(F)cc1 (stereo not shown) [Cpd 59, 1-cyclohexyl-8-(4-fluoro-benzyl)-1,4,5,6,7,8-hexahydro-cycloheptapyrazole-3-carboxylic acid cyclopentylamide] | 60 | 27 |  |  |  |
| C[C@@H](NC(=O)c1n[nH]c2c1CCCC/C2=C\c1ccc(Cl)cc1)C1CCCCC1 [Cpd 140, (8E)-8-(4-chloro-benzylidene)-1,4,5,6,7,8-hexahydro-cycloheptapyrazole-3-carboxylic acid [(1R)-1-cyclohexyl-ethyl]-amide] |  |  |  | 97 | CB2 receptor binding percent inhibition (CB2 receptor; test concentration 0.2 μM (footnote 2)): ^(2)100%; IC50 (CB1 receptor; [1]): 6 nM |
| O=C(N[C@H](CO)Cc1ccccc1)c1n[nH]c2c1CCCCC2Cc1cccc(Cl)c1 (stereo partly drawn) [Cpd 166, 8-(3-chloro-benzyl)-1,4,5,6,7,8-hexahydro-cycloheptapyrazole-3-carboxylic acid [(1S)-1-benzyl-2-hydroxy-ethyl]-amide] |  |  | 75 | 24 |  |
